The target in assay [1] is T1, TxtE (Streptomyces scabiei, UniProt C9ZDC6).
T1 sequence (C9ZDC6 1-406): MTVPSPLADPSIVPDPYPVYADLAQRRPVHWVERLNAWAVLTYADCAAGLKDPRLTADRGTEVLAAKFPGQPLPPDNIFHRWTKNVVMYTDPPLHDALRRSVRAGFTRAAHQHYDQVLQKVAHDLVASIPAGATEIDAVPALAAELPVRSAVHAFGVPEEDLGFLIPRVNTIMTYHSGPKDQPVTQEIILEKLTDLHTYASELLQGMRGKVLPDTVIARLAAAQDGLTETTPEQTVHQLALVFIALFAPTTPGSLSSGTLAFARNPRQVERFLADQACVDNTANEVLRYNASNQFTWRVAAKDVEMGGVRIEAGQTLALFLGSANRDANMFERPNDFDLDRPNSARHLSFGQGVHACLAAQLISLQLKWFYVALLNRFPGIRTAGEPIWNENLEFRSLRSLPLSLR
Put plainly: ITC of Trp titration to TxtE. The assay is classed as binding. To be noted: 2 mM Trp into 50 μM TxtE. On the procedure: (§1) Figure S1. Spectroscopic and ITC analysis of substrate binding in TxtE
(§2) (A) UV-vis spectra of 2 μM TxtE in the absence (black trace) and presence (red trace) of 0.5 mM
(§3) Trp; (B) ITC experiment of Trp titration to TxtE.
(§4) power observed with successive injections of 2 mM Trp to 50 μM TxtE after baseline correction.
(§5) consistent with a single binding site (red line). (C) Resonance Raman spectra of 100 μM TxtE in
(§6) the absence (top) and presence (bottom) of 1 mM Trp.
(§7) (1 picture or pasted object on this page, not shown here)

For assay [2], the target named is T1, TxtE. Put plainly: UV-vis of TxtE with Trp. To be noted: 2 μM TxtE, 0.5 mM Trp. The assay is classed as binding. On the procedure:
as §1, §2
Trp; (B) ITC experiment of Trp titration to TxtE. […]
as §7

The target in assay [3] is T1, TxtE. Put plainly: Resonance Raman of TxtE with Trp. The assay is classed as binding. The settings on record: 100 μM TxtE, 1 mM Trp. The protocol:
All rR measurements were carried out in 180° backscattering geometry, with scattered light focused by a cylindrical lens (Nikon). The beam passed through a 405 nm notch filter (Thorlabs) for ferric samples or a 442 nm notch filter (Iridian) for ferrous-CO samples, before entering an iHR550 spectrometer (Horiba Scientific). The spectrometer was configured with a 120-μm entrance slit and a 1200 grooves/mm grating (estimated spectral resolution of 10 cm^–1) for ferric samples, or a 350-μm slit and 2400 grooves/mm grating (estimated spectral resolution of 10 cm^–1) for ferrous-CO samples, with detection by a liquid nitrogen-cooled Symphony CCD detector (Horiba Scientific). The accuracy of absolute frequencies is about ±1 cm^–1 based on duplicated measurements. Measurements were conducted at room temperature in 5 mm NMR tubes constantly spinning to prevent local heating and protein degradation. The acquisition times for ferric and CO-bound samples were set to 40 min and 2 h, respectively. UV–vis spectra were recorded before and after the measurements to ensure no photodegradation occurred. rR spectra were calibrated with fenchone (for all samples) and acetone-d 6 (for ferrous-CO samples in high-frequency regions) and processed using GRAMS/AI software (ThermoFisher).
as §1, §2, §3, §4, §5, §6, §7

The target in assay [4] is T2, RufO (Streptomyces atratus, UniProt A0A224AU14).
T2 construct: made in house
T2 sequence (A0A224AU14 1-394): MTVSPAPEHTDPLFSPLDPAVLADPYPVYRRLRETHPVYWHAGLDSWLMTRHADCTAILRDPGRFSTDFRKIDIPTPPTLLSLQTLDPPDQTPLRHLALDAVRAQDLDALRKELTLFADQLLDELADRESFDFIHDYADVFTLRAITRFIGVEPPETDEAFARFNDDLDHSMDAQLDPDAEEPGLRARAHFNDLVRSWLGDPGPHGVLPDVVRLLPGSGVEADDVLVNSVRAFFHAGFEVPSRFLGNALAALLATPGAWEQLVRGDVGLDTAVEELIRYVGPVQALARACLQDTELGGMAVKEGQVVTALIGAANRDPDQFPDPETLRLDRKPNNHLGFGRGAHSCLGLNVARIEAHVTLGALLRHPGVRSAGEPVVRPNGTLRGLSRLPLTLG
Put plainly: Isothermal titration calorimetry, peptide into RufO. Type of assay: binding. The settings on record: ITC, 20 °C, 190 μM RufO, 50 mM Tris-HCl, 100 mM NaCl pH 7.5, one set of sites, control subtracted.
Procedure: ITC experiments were conducted at 20 °C using a MicroCal PEAQ-ITC instrument (Malvern Panalytical). RufO was prepared in a buffer containing 50 mM Tris-HCl and 100 mM NaCl at pH 7.5. The reference cell was filled with water. Each experiment involved 190 μM RufO in the sample cell, titrated with either 2.5 mM MRYLH or 2.8 mM Nle-RYLH in the syringe. Control experiments replaced the protein in the cell with buffer. The titration protocol included an initial 0.4 μL injection (excluded from analysis), followed by 19 injections of 2 μL at 2.5 min intervals. The cell was continuously stirred at 750 rpm. Data analysis was conducted using MicroCal PEAQ-ITC Analysis Software, with heats of dilution determined from the plateau region of the thermograms and subtracted from each integrated peak. All titrations are baseline corrected. The final integrated enthalpic changes were obtained by subtracting the controls from the protein-peptide titrations and fitted to a “one set of sites” binding model.

In assay [5] the target is T2, RufO. Kind of assay: X-band cw EPR of RufO with peptide. The assay is classed as binding. The settings on record: 100 μM RufO, 2 mM peptide, 10 K; double-integrated intensities. The protocol:
3 Spectroscopic characterization of the RufO heme center with and without peptide substrates. (A) X-band continuous wave EPR spectra of RufO (black), RufO with 2 mM MRYLH (red), and RufO with 2 mM Nle-RYLH (blue), measured at 10 K and 1 mW microwave power. The minor species marked by asterisks likely arise from conformational heterogeneity of the heme center or a freezing artifact. (B) rR spectra of RufO (top), RufO with 2 mM MRYLH (middle), and RufO with 2 mM Nle-RYLH (bottom). The spectra were collected using a 405 nm excitation laser at 5 mW. (C) rR spectra of CO adducts of ferrous RufO (top) and ferrous RufO with 2 mM Nle-RYLH (bottom). Spectra were collected using a 442 nm excitation line at 1 mW. (D) Backbonding correlations between v(Fe–C) and v(C–O) stretching frequencies for various CYPs in the absence (squares) and presence (circles) of ligands. […]
EPR samples were prepared by mixing 100 μM RufO in the same buffer with 5% glycerol and either 2 mM MRYLH or Nle-RYLH, followed by flash-freezing in 4 mm quartz EPR tubes. […] Each sample was measured at 9.35 GHz microwave frequency at 10 K using 1 mW microwave power. All spectra were recorded with four averaged scans using an ER4119HS resonator at a modulation frequency of 100 kHz and a modulation amplitude of 0.4 mT. The conversion rate of the low-spin species was determined by comparing the double-integrated intensities of the signals. […]

Assay [6] has as its system ferrous RufO. Kind of assay: Stopped-flow transient kinetics of O2 and •NO binding to ferrous RufO. To be noted: 4 °C; for association rate constant k1: 3.3 μM ferrous RufO, pH 8.0, linear fit. The protocol: 5 Transient kinetics of ferrous RufO binding to O2 and ^•NO. Spectral changes following the rapid mixing of 3.3 μM ferrous RufO bound to MRYLH with (A) 18 μM O2 and (C) 70 μM ^•NO over 0.2 s. The black-to-red spectral transitions represent the formation of (A) a ferric-superoxo intermediate and (C) a ferrous-nitrosyl complex. Insets show the time-dependent absorbance changes at 438 nm (the most pronounced shift), fitted using single exponential equations to determine rate constants (red trace). Dependence of rate constant as a function of gas concentration on (B) O2 and (D) ^•NO binding to ferrous RufO alone (blue) and peptide-bound RufO (red). Second-order rate constants were determined through linear fitting. TEXT PRINTED IN THE PICTURE: (A) + O2: kobs = 74.3 s^-1 | (B) RufO alone: k1 = 3.55 μM^-1 s^-1 | (B) peptide-bound: k1 = 3.83 μM^-1 s^-1 | (C) + •NO: kobs = 107.4 s^-1 | (D) RufO alone: k1 = 4.12 μM^-1 s^-1 | (D) peptide-bound: k1 = 2.35 μM^-1 s^-1
Stopped-flow spectroscopic data were collected using an Applied Photophysics SX20 stopped-flow system equipped with a photodiode array detector. The system was maintained in an anaerobic chamber (O2 < 1 ppm) and all sample preparation was done anaerobically. Measurements were performed at 4 °C. All samples were prepared in a buffer containing 50 mM Tris-HCl and 100 mM NaCl, pH 8.0. RufO was prereduced with a minimal amount of sodium dithionite. The final mixed concentrations of RufO and MRYLH (where applicable) were 3.3 and 24 μM, respectively. Solutions of varying O2 concentrations were prepared by diluting air-saturated buffer with anaerobic buffer. The concentrations of O2 in the air-saturated buffer were measured with an Oxygraph+ oxygen electrode (Hansatech). To generate ^•NO-containing solutions, 0.5 mM DEA NONOate (≥98%, Cayman Chemical) was incubated in anaerobic buffer for 4 h to ensure complete ^•NO release. The ^•NO concentrations were quantified based on a hemoglobin assay, and further dilutions were made with anaerobic buffer immediately prior to mixing. Experimental data were analyzed by the ProK software package from Applied Photophysics. The second-order rate constants were obtained from linear fitting, with the resulting equations: y = 3.55x + 54.4 for the mixing of RufO with O2, y = 3.83x + 6.5 for the ES complex with O2, y = 4.12x −158.0 for RufO with ^•NO, and y = 2.35x – 58.9 for the ES complex with ^•NO.
Figure S9. Transient kinetics of ferrous RufO alone binding to O2 and •NO Spectral changes following the rapid mixing of 3.3 μM ferrous RufO with (A) 18 μM O 2 and […] superoxo intermediate and (B) a ferrous-nitrosyl complex. Insets show the time-dependent absorbance changes at 438 nm (the most pronounced shift), fitted using first-order exponential equations to determine rate constants (red trace).
as §7

Assay [7] addresses T3, MRYLH pentapeptide (RufO substrate) (Streptomyces atratus).
T3 chain: MRYLH
Kind of assay: ITC. (In general: In ITC the heat of successive injections is recorded.)

Ends that are not written are not given here. Where only a bound is given, the exact number is not on record here.

As a reminder, the Kd is a measure of binding affinity in units of concentration. Low values mean higher affinity, high ones lower affinity. Turning to `N[C@@H](Cc1c[nH]c2ccccc12)C(=O)O` [Trp, L-tryptophan], the “ΔS, in words” value in assay [1] was “negative ΔS”. Besides, the Kd in assay [1] (single binding site) stood at 16000 nM. In assay [1] (single binding site, exothermic), this molecule came in with a ΔH of -14.6 kcal/mol. Also, in assay [2], the “Soret band position on substrate binding” value is given as 390 nm. The “low-spin ν10 (1640 cm^–1), in words” value in assay [3] is given as “disappearance”. The “ν4 on Trp binding” value in assay [3] (initially 1374 cm^–1) stood at 1373 cm^–1. Further, in assay [3] (initially 1504 cm^–1, six- to five-coordinate high-spin conversion), the “ν3 on Trp binding” value worked out at 1488 cm^–1. Further, the “ν2 on Trp binding” value in assay [3] (initially 1588 cm^–1) was 1570 cm^–1.

As to MRYLH [MRYLH], the equilibrium dissociation constant (Kd) in assay [4] stood at 780 ± 300 nM. Also, the “conversion of original low-spin species to new low-spin species” value in assay [5] is given as 84%.

As for nitric oxide [•NO], the kobs in assay [6] (MRYLH-bound ferrous RufO 3.3 μM, 70 μM •NO, 438 nm, single exponential) turned out to be 107.4 s⁻¹. Moreover, the “association rate constant k1” value in assay [6] (MRYLH-bound, 24 μM MRYLH) is 2.35 μM^–1 s^–1; in assay [6] (RufO alone), 4.12 μM^–1 s^–1. For the same molecule, the entries for the “•NO concentration below which nitrosyl complex not detectable” value in assay [6] (RufO alone) and in assay [6] (peptide-bound RufO) were less than 50 µM and less than 70 µM, respectively.

B1: RufO (protein)
chain: MTVSPAPEHTDPLFSPLDPAVLADPYPVYRRLRETHPVYWHAGLDSWLMTRHADCTAILRDPGRFSTDFRKIDIPTPPTLLSLQTLDPPDQTPLRHLALDAVRAQDLDALRKELTLFADQLLDELADRESFDFIHDYADVFTLRAITRFIGVEPPETDEAFARFNDDLDHSMDAQLDPDAEEPGLRARAHFNDLVRSWLGDPGPHGVLPDVVRLLPGSGVEADDVLVNSVRAFFHAGFEVPSRFLGNALAALLATPGAWEQLVRGDVGLDTAVEELIRYVGPVQALARACLQDTELGGMAVKEGQVVTALIGAANRDPDQFPDPETLRLDRKPNNHLGFGRGAHSCLGLNVARIEAHVTLGALLRHPGVRSAGEPVVRPNGTLRGLSRLPLTLG
Take B1: the Kd in assay [7] is 780 nM.

The values are drawn from paper PMC12186263, “Molecular Basis for Peptide Nitration by a Novel Cytochrome P450 Enzyme in RiPP Biosynthesis” (ACS Catalysis, 2025).
